Measured values: patent US10052330B2, “Substituted pyrido[3,4-b]pyrazines as Syk inhibitors” (HUTCHISON MEDIPHARMA LIMITED, priority 2011, dated 2018)
Like-named read-outs stand apart in the source and are kept apart here.

Assays:
RBL-2H3 cells = experiment: IgE-induced Beta-hexosaminidase secretion in RBL-2H3 cells; assay type: cell-based; details: Rattus norvegicus
Syk kinase = Syk kinase (Homo sapiens, UniProt P43405); experiment: Syk kinase enzymatic assay (Kit-Tyr 2 Peptide); assay type: biochemical; details: 8 concentrations, 1 μM down to 0.0003 μM; upper bound of each range is 'less than'; read-out: IC50: Enzymatic Activity (Syk kinase)
[1] = RBL-2H3, RBL-2H3 cells sensitized with SPE-7, stimulated with DNP-BSA, upper bound of each range is 'less than', read-out: IC50, IgE-induced Beta-hexosaminidase secretion

SMILES | IC50 (Syk kinase) [nM] | IC50 (RBL-2H3 cells; [1]) [nM] | IC50 (RBL-2H3 cells; RBL-2H3, read-out: IC50, IgE-induced Beta-hexosaminidase secretion) [nM]
FC1(CNc2nc(-c3ccc(N4CCOCC4)cc3)cc3nccnc23)CCCNC1 (single isomer, unassigned) [Compound 377] | 1 to 100 | 1 to 100 | –
Fc1cc(-c2cc3nccnc3c(NCC3(F)CCCNC3)n2)ccc1N1CCOCC1 (single isomer, unassigned) [Compound 382] | 1 to 100 | 1 to 100 | –
CN1CCN(c2ccc(-c3cc4nccnc4c(NCC4CN(S(C)(=O)=O)CCO4)n3)cc2)CC1 (stereo in doubt) [Compound 486, (S)-7-(4-(4-methylpiperazin-1-yl)phenyl)-N-((4-(methylsulfonyl)morpholin-2-yl)methyl)pyrido[4,3-b]pyrazin-5-amine] | 1 to 100 | 1 to 100 | –
CN(C)c1cccc(-c2cc3nccnc3c(NCC3CCCNC3)n2)c1 (stereo not drawn) [Compound 13] | 100 to 1000 | 100 to 1000 | –
COc1cc(OC)cc(-c2cc3nccnc3c(NCC3CCCNC3)n2)c1 (stereo not drawn) [Compound 15] | 100 to 1000 | 100 to 1000 | –
COc1cccc(-c2cc3nccnc3c(NCC3CCCNC3)n2)c1 (stereo not drawn) [Compound 17] | 100 to 1000 | 100 to 1000 | –
Cn1cc(-c2cc3nccnc3c(NCC3CCCNC3)n2)cn1 (stereo not drawn) [Compound 18] | 100 to 1000 | – | 100 to 1000
CN(C)c1ccc(-c2cc3nccnc3c(NC[C@H]3CCCNC3)n2)cc1 [Compound 21] | 1 to 100 | 1 to 100 | –
Cc1ccc(-c2cc3nccnc3c(NCC3CCCNC3)n2)cc1 (stereo not drawn) [Compound 22] | 1 to 100 | 1 to 100 | –
Fc1ccc(-c2cc3nccnc3c(NCC3CCCNC3)n2)cc1 (stereo not drawn) [Compound 23] | 100 to 1000 | 100 to 1000 | –
CC(C)(O)[C@@H]1CCN(c2nc(-c3ccc(N4CCOCC4)cc3)cc3nccnc23)C1 [Compound 170] | – | 100 to 1000 | –
OCC1(CNc2nc(-c3ccc(N4CCOCC4)cc3)cc3nccnc23)COC1 [Compound 171] | – | 100 to 1000 | –
N#CCCNc1nc(-c2ccc(N3CCOCC3)cc2)cc2nccnc12 [Compound 187] | – | 100 to 1000 | –
FC(F)CNc1nc(-c2ccc(N3CCOCC3)cc2)cc2nccnc12 [Compound 197] | – | 100 to 1000 | –
FC(F)(F)C1CCC(CNc2nc(-c3ccc(N4CCOCC4)cc3)cc3nccnc23)CN1 (stereo not drawn) [Compound 199] | – | 100 to 1000 | –
Fc1cc(-c2cc3nccnc3c(NC[C@H]3CNCCC3(F)F)n2)ccc1N1CCOCC1 [Compound 369, (R)—N-((4,4-difluoropiperidin-3-yl)methyl)-7-(3-fluoro-4-morpholinophenyl)pyrido[4,3-b]pyrazin-5-amine] | 100 to 1000 | – | –
FC1(F)CCNC[C@@H]1CNc1nc(-c2ccc(N3CCOCC3)nc2)cc2nccnc12 [Compound 375, (R)—N-((4,4-difluoropiperidin-3-yl)methyl)-7-(6-morpholinopyridin-3-yl)pyrido[4,3-b]pyrazin-5-amine] | 100 to 1000 | – | –
F[C@]1(CNc2nc(-c3ccc(N4CCOCC4)nc3)cc3nccnc23)CCCNC1 [Compound 379, (R)—N-((3-fluoropiperidin-3-yl)methyl)-7-(6-morpholinopyridin-3-yl)pyrido[4,3-b]pyrazin-5-amine] | 100 to 1000 | – | –
CS(=O)(=O)c1ccc(-c2cc3nccnc3c(NC[C@H]3CNCCC3(F)F)n2)cc1 [Compound 391, (R)—N-((4,4-difluoropiperidin-3-yl)methyl)-7-(4-(methylsulfonyl)phenyl)pyrido[4,3-b]pyrazin-5-amine] | 100 to 1000 | – | –
O=C(C(F)F)N1CCO[C@H](CNc2nc(-c3ccc(N4CCOCC4)c(Cl)c3)cc3nccnc23)C1 [Compound 452] | 100 to 1000 | – | –
CNc1ccc(-c2cc3nccnc3c(NC[C@@H]3CN(C(=O)C(F)F)CCO3)n2)cc1 [Compound 453] | 100 to 1000 | – | –
CNc1ccc(-c2cc3nccnc3c(NC[C@@H]3CN(C(=O)C(F)F)CCO3)n2)cc1F [Compound 457] | 100 to 1000 | – | –
CNC(=O)COc1ccc(-c2cc3nccnc3c(NC[C@@H]3CN(C(=O)C(F)F)CCO3)n2)cc1 [Compound 461] | 100 to 1000 | – | –
CS(=O)(=O)CCOc1ccc(-c2cc3nccnc3c(NC[C@@H]3CNCCO3)n2)cc1 [Compound 478, (S)-7-(4-(2-(methylsulfonyl)ethoxy)phenyl)-N-(morpholin-2-ylmethyl)pyrido[4,3-b]pyrazin-5-amine] | 100 to 1000 | – | –
O=S1(=O)CCNCC1CNc1nc(-c2ccc(N3CCOCC3)c(F)c2)cc2nccnc12 (stereo not drawn) [Compound 483] | 100 to 1000 | – | –
CN1CCN(c2ccc(-c3cc4nccnc4c(NCC4CNCCS4(=O)=O)n3)cc2)CC1 (stereo not drawn) [Compound 484] | 100 to 1000 | – | –
CS(=O)(=O)N1CCN(c2ccc(-c3cc4nccnc4c(NC[C@@H]4CN(S(C)(=O)=O)CCO4)n3)cc2)CC1 [Compound 492] | 100 to 1000 | – | –
CS(=O)(=O)N1CCC(c2ccc(-c3cc4nccnc4c(NCC(O)CN)n3)cc2)CC1 (stereo not drawn) [Compound 509] | 100 to 1000 | – | –

Now from value to compound, other results behind:

IC50 (Syk kinase) [nM] | SMILES | IC50 (RBL-2H3 cells; [1]) [nM] | IC50 (RBL-2H3 cells; RBL-2H3, read-out: IC50, IgE-induced Beta-hexosaminidase secretion) [nM]
100 to 1000 | CC1CN(c2ccc(-c3cc4nccnc4c(NC[C@@H]4CNCCO4)n3)cc2F)CCO1 (mixture of isomers) [Compound 250] | 1 to 100 | –
1 to 100 | CC1CN(c2ccc(-c3cc4nccnc4c(NCC4CNCCC4(F)F)n3)cc2)CCO1 (single isomer, unassigned) [Compound 308] | 1 to 100 | –
1 to 100 | C[C@H]1CN(c2ccc(-c3cc4nccnc4c(NCC4CNCCC4(F)F)n3)cc2)CCO1 (single isomer, unassigned) [Compound 396] | 1 to 100 | –
100 to 1000 | CN(CCCN)c1nc(-c2ccc(N3CCOCC3)cc2)cc2nccnc12 [Compound 4] | 100 to 1000 | –
1 to 100 | COc1ccc(-c2cc3nccnc3c(NCC3CCCNC3)n2)cc1F (stereo not drawn) [Compound 19] | 1 to 100 | –
1 to 100 | NC(=O)CCC(=O)N1CCN(c2ccc(-c3cc4nccnc4c(NCC4CNCCO4)n3)cc2)CC1 (stereo not drawn) [Compound 422] | – | –
1 to 100 | CS(=O)(=O)N1CCC(n2cc(-c3cc4nccnc4c(NC[C@@H]4CNCCO4)n3)cn2)CC1 [Compound 431] | – | –
100 to 1000 | COc1ccc(-c2cc3nccnc3c(NC[C@@H]3CN(C(=O)C(F)F)CCO3)n2)cc1OC [Compound 454] | – | –
1 to 100 | CS(=O)(=O)N1CCO[C@H](CNc2nc(-c3ccc(C4CCNCC4)cc3)cc3nccnc23)C1 [Compound 459] | – | –
100 to 1000 | CCN(CC)c1ccc(-c2cc3nccnc3c(NC[C@@H]3CN(C(=O)C(F)F)CCO3)n2)cc1 [Compound 471] | – | –
100 to 1000 | CN(CCO)c1ccc(-c2cc3nccnc3c(NC[C@@H]3CNCCO3)n2)cc1 [Compound 472, (S)-2-(methyl(4-(5-(morpholin-2-ylmethylamino)pyrido[4,3-b]pyrazin-7-yl)phenyl)amino)ethanol] | – | –
1 to 100 | CC[N+]1(CC)CCC(c2ccc(-c3cc4nccnc4c(NC[C@@H]4CN(C(=O)C(F)F)CCO4)n3)cc2)CC1 [Compound 480, (R)-4-(4-(5-((4-(2,2-difluoroacetyl)morpholin-2-yl)methylamino)pyrido[4,3-b]pyrazin-7-yl)phenyl)-1,1-diethylpiperidinium iodide] | – | –
100 to 1000 | CC(=O)N1CCN(c2ccc(-c3cc4nccnc4c(NC[C@@H]4CN(S(C)(=O)=O)CCO4)n3)cc2)CC1 [Compound 491] | – | –
100 to 1000 | CS(=O)(=O)N1CCC(c2ccc(-c3cc4nccnc4c(NC[C@@H]4CN(O)CCO4)n3)cc2)CC1 [Compound 496, (R)-2-((7-(4-(1-(methylsulfonyl)piperidin-4-yl)phenyl)pyrido[4,3-b]pyrazin-5-ylamino)methyl)morpholin-4-ol] | – | –
